Assay results reported in PMC12748266, “Testing antimicrobial peptides inhibiting protein synthesis in living E. coli and K. pneumoniae using bio-orthogonal non-canonical amino-acid tagging” (Frontiers in Microbiology, 2025).
Converted amounts (≈) assume the structure as drawn. No end group written: not given here.

What was measured:
E. coli ATCC 25922 [1] = assay: BONCAT: HPG incorporation into newly synthesized proteins, flow cytometry; type: cell-based, Escherichia coli; details: compound at MIC; for Fluorescence Intensity (% of Control): 10 min pre-incubation then 30 min HPG, untreated = 100%, mean, n ≥ 3; for Decrease in fluorescence compared to untreated bacteria: 40 min total incubation (10 min + 30 min HPG)
Method: (§1) We used a modified protocol from [Lindivat et al. (2020)]. Briefly, overnight cultures of E. coli ATCC 25922 or K. pneumoniae ATCC 700603, prepared as described above, were diluted to a final concentration of 5×10^6 CFU/mL and allowed to adjust for 30 min at 37 °C. The culture was then incubated at 37 °C in the dark for 10 or 30 min in the presence or absence of each peptide or antibiotic at various concentrations, with a final volume of 1 mL. At this point, only in certain specified experimental assays, the compounds were removed from the supernatant by centrifugation (16,000 × g for 5 min) and bacteria were washed and resuspended in fresh supplemented M9 medium. Then, 32 μL of a 500 μM homopropargylglycine (HPG) solution were added to each sample, resulting in a final concentration of 16 μM in a finale volume of 1 mL. Also included in each assay were two untreated controls containing only bacteria and bacteria treated with 16 μM HPG alone, respectively. All samples were then incubated at 37 °C in the dark for 30 min. After incubation, samples were washed once with 1X filtered Phosphate Buffered Saline (PBS) (centrifuged at 16,000 x g for 5 min) and resuspended in PBS. After washing, samples were fixed with formaldehyde (Sigma Aldrich, USA) to a final concentration of 3% in 1 mL for 1 h at 25 °C. Subsequently, the samples were centrifuged at 16,000 x g for 5 min and resuspended in 1 mL of PBS. If not analysed immediately, the fixed samples were stored at 4 °C prior to performing the click chemistry reaction. Samples were centrifugated at 16,000 x g for 5 min and bacteria cells were dehydrated by ethanol that was added sequentially to achieve a final concentration of 50% (v/v) (3 min of incubation), 80% (v/v) (3 min of incubation), and 95% (v/v) (3 min of incubation). After dehydration, the samples were centrifugated (16,000 × g, 5 min) and resuspended in PBS. For cell analysis by SDS-PAGE, the following variations were implemented: bacterial cells were diluted in supplemented M9 medium to a final density of ~ 1 × 10^9 CFU/mL, and HPG was added to the samples at a final concentration of 160 μM. Bacteria were incubated with HPG for 0, 15, 30, 60, or 120 min at 37 °C in the dark.
(§2) The click reaction was carried out according to [Rostovtsev et al. (2002)]. 15 μL of a pre-mix solution (prepared as described above) were added to each sample containing fixed bacteria that had incorporated HPG (30 μL of pre-mix solution in case of samples prepared for SDS-PAGE analysis), resulting in the following final concentrations in each sample: 0.1 mM copper sulfate, 0.5 mM Tris (3-hydroxypropyltriazolylmethyl)amine (THPTA), and 2.5 μM Alexa Fluor azide 488. Additionally, 50 μL of freshly prepared 100 mM sodium ascorbate and 50 μL of 100 mM aminoguanidine were added (100 μL in case of samples prepared for SDS-PAGE analysis), bringing the final volume to 1 mL. The samples were gently inverted once to mix and incubated for 30 min in the dark at 25 °C. Finally, each sample was washed with PBS once (centrifuged at 16,000 × g for 5 min) and resuspended in 1 mL PBS.
An overnight culture of E. coli ATCC 25922, or of K. pneumoniae ATCC 700603, prepared as described above, was diluted to a final concentration of 5 × 10^6 CFU/mL and allowed to adjust for 30 min at 37 °C under shaking. Membrane permeabilization of bacteria was then assessed by incubating bacteria at 37 °C, in a final volume of 1 mL, with varying concentrations of each peptide or antibiotic used for the BONCAT assay. 5 min before the ending of the selected incubation time (40 min), propidium iodide probe was added to the samples to a final concentration of 10 μg/mL before analysis using a flow cytometer. A positive control consisted of E. coli cells dehydrated with ethanol (as described above), while untreated cells were used as negative control. The fluorescence of untreated cells was used to establish the gating for positive PI-stained cells. […]

E. coli ATCC 25922 [2] = assay: BONCAT protein synthesis inhibition after antimicrobial washout; type: cell-based, Escherichia coli; details: 10 or 30 min at MIC (time not given), then 30 min HPG
Method: We used a modified protocol from [Lindivat et al. (2020)]. Briefly, overnight cultures of E. coli ATCC 25922 or K. pneumoniae ATCC 700603, prepared as described above, were diluted to a final concentration of 5×10^6 CFU/mL and allowed to adjust for 30 min at 37 °C. The culture was then incubated at 37 °C in the dark for 10 or 30 min in the presence or absence of each peptide or antibiotic at various concentrations, with a final volume of 1 mL. At this point, only in certain specified experimental assays, the compounds were removed from the supernatant by centrifugation (16,000 × g for 5 min) and bacteria were washed and resuspended in fresh supplemented M9 medium. […] If not analysed immediately, the fixed samples were stored at 4 °C prior to performing the click chemistry reaction. […]
(§3) An overnight culture of E. coli ATCC 25922, or of K. pneumoniae ATCC 700603, prepared as described above, was diluted to a final concentration of 5 × 10^6 CFU/mL and allowed to adjust for 30 min at 37 °C under shaking. Membrane permeabilization of bacteria was then assessed by incubating bacteria at 37 °C, in a final volume of 1 mL, with varying concentrations of each peptide or antibiotic used for the BONCAT assay. […] The fluorescence of untreated cells was used to establish the gating for positive PI-stained cells. […]

[3] = system: K. pneumoniae ATCC 700603; assay: microbe, parasite or virus in culture; type: cell-based, Klebsiella pneumoniae; details: for MIC: 18 h, 37 °C, mode of at least three experiments; for MIC for K. pneumoniae relative to E. coli: supplemented M9, 5 × 10^6 cells/mL
Method: […] […] Serially two-fold dilution (1:1) were performed across subsequent wells to a final volume of 50 μL. […] […] The plates were sealed with parafilm to minimize evaporation and incubated at 37 °C for 18 h. The minimum inhibitory concentration (MIC) was visually determined as the lowest peptide concentration in a well with no visible bacterial growth. Data are reported as the mode of at least three independent experiments.

[4] = system: K. pneumoniae ATCC 700603; assay: Cell membrane permeabilization, propidium iodide flow cytometry; type: cell-based, Klebsiella pneumoniae; details: compound at its MIC, 40 min, 5 × 10^6 CFU/mL, supplemented M9; mean of n = 3
Method: An overnight culture of E. coli ATCC 25922, or of K. pneumoniae ATCC 700603, prepared as described above, was diluted to a final concentration of 5 × 10^6 CFU/mL and allowed to adjust for 30 min at 37 °C under shaking. Membrane permeabilization of bacteria was then assessed by incubating bacteria at 37 °C, in a final volume of 1 mL, with varying concentrations of each peptide or antibiotic used for the BONCAT assay. 5 min before the ending of the selected incubation time (40 min), propidium iodide probe was added to the samples to a final concentration of 10 μg/mL before analysis using a flow cytometer. A positive control consisted of E. coli cells dehydrated with ethanol (as described above), while untreated cells were used as negative control. The fluorescence of untreated cells was used to establish the gating for positive PI-stained cells. Fixed bacterial cells, subjected to the click chemistry reaction to link the Alexa Fluor azide 488 probe, were analysed by flow cytometry and, among the gates-selected ones, only those that tested positive for Propidium Iodide, and thus permeabilized, were considered for the calculation of the mean fluorescence intensity (MFI) of the Alexa Fluor azide 488.
Samples were analyzed by an Attune NxT® (ThermoFisher) equipped with a blue laser (488 nm) and photomultiplier tubes (PMTs) BL1 (525/50) and BL3 (695/40) to collect fluorescence. All parameters were set in logarithmic scale and the signals were recorded as Area. Forward scattering (FSC) was set to 300 mV, side scattering (SSC) to 350 mV and thresholds to 0.2 for FSC and 0.5 for SSC. The compensation matrix was performed according to the tool software. Hierarchical gates and acquisition flow rate (200 μL/min) were set to avoid coincident events. The files were saved as FCS 3.1 and analysed by FCS Express De Novo software v7. Flow cytometry data are presented as means ± SD from three independent experiments (n = 3).

[5] = system: K. pneumoniae ATCC 700603; assay: BONCAT: HPG incorporation into newly synthesized proteins, flow cytometry; type: cell-based, Klebsiella pneumoniae; details: compound at MIC; for Fluorescence Intensity (% of Control): 10 min pre-incubation then 30 min HPG, untreated = 100%, mean, n ≥ 3
Method: as §1
as §2, with “Finally, each sample was washed with PBS once (centrifuged at 16,000 × g for 5 min) and resuspended in 1 mL PBS.” left out
as §3

Row | Molecule | Fluorescence Intensity (% of Control) (E. coli ATCC 25922 [1]) | Decrease in fluorescence compared to untreated bacteria (E. coli ATCC 25922 [1]) | Reduction in fluorescence after washout (E. coli ATCC 25922 [2]) | MIC ([3]; Klebsiella pneumoniae, ATCC700603, supplemented M9 medium, 5 × 10^6 CFU/mL, visual) [µM] | Membrane permeabilization (% PI +cells) [4] [%] | Reduction in fluorescence ([5]; 10 min + 30 min HPG) | Fluorescence Intensity (% of Control) [5] | MIC ([3]; Mueller Hinton, 2,5x10^5 CFU/mL) [µM] | MIC for K. pneumoniae relative to E. coli [3] [fold] | MIC ([3]; supplemented M9 medium, 5 × 10^6 CFU/mL, visual) [µM]
1 | O=C(N[C@H](CO)[C@H](O)c1ccc([N+](=O)[O-])cc1)C(Cl)Cl [CHL, Chloramphenicol] | 20 % of Control | 80% | lost most of its inhibitory effects once removed from the medium | – | – | – | – | – | – | –
2 | CO[C@H]1/C=C/O[C@@]2(C)Oc3c(C)c(O)c4c(O)c(c(/C=N/N5CCN(C)CC5)c(O)c4c3C2=O)NC(=O)/C(C)=C\C=C\[C@H](C)[C@H](O)[C@@H](C)[C@@H](O)[C@@H](C)[C@H](OC(C)=O)[C@@H]1C [RIF, Rifampicin] | 102 % of Control | did not affect fluorescence intensity | over 20% | 16 (≈ 13.2 µg/mL) | <1 | did not affect fluorescence | 87 % of Control | – | – | –
3 | RRIRPRPPRLPRPRPR [Bac7(1–16)] | 18 % of Control | – | – | – | <1 | – | 18 % of Control | 4 | 4 | 4
4 | RRIRPRPPRLPRPRPRPLPFPRPGPRPIPRPLPFP [Bac7(1–35)] | 14 % of Control | – | – | – | <1 | – | 6 % of Control | – | 4 | –
